Data reported in PubChem BioAssay (NCI).
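Test compounds were applied to cells in 96-well plates for 48 hours at 5 doses. TGI is the concentration that stops growth completely.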

How the values were obtained:
Assay in all cases: DTP human tumour cell line panel, 48 h
NCI-H460 lung = test system: NCI-H460 lung
DMS 114 small cell lung = test system: DMS 114 small cell lung
SF-295 CNS = test system: SF-295 CNS
LOX IMVI melanoma = test system: LOX IMVI melanoma
NCI-H23 lung = test system: NCI-H23 lung
RXF-631 renal = test system: RXF-631 renal
SNB-78 CNS = test system: SNB-78 CNS
U251 CNS = test system: U251 CNS
SF-539 CNS = test system: SF-539 CNS
SK-OV-3 ovarian = test system: SK-OV-3 ovarian
SN12C renal = test system: SN12C renal
K-562 leukemia = test system: K-562 leukemia
OVCAR-8 ovarian = test system: OVCAR-8 ovarian
786-0 renal = test system: 786-0 renal
UO-31 renal = test system: UO-31 renal
MALME-3M melanoma = test system: MALME-3M melanoma
UACC-257 melanoma = test system: UACC-257 melanoma
SF-268 CNS = test system: SF-268 CNS
KM20L2 colon = test system: KM20L2 colon
HCT-116 colon = test system: HCT-116 colon
DLD-1 colon = test system: DLD-1 colon
UACC-62 melanoma = test system: UACC-62 melanoma
OVCAR-3 ovarian = test system: OVCAR-3 ovarian
HCC-2998 colon = test system: HCC-2998 colon
MOLT-4 leukemia = test system: MOLT-4 leukemia
HCT-15 colon = test system: HCT-15 colon
M19-MEL melanoma = test system: M19-MEL melanoma
LXFL 529 NSCLC = test system: LXFL 529 NSCLC
KM12 colon = test system: KM12 colon
RPMI-8226 leukemia = test system: RPMI-8226 leukemia
SR leukemia = test system: SR leukemia
XF 498 CNS = test system: XF 498 CNS
M14 melanoma = test system: M14 melanoma
ACHN renal = test system: ACHN renal
NCI-H522 lung = test system: NCI-H522 lung
RXF 393 renal = test system: RXF 393 renal
EKVX NSCLC = test system: EKVX NSCLC
HT29 colon = test system: HT29 colon
OVCAR-5 ovarian = test system: OVCAR-5 ovarian
SNB-19 CNS = test system: SNB-19 CNS
CCRF-CEM leukemia = test system: CCRF-CEM leukemia
TK-10 renal = test system: TK-10 renal
HOP-62 NSCLC = test system: HOP-62 NSCLC
SK-MEL-28 melanoma = test system: SK-MEL-28 melanoma
A498 renal = test system: A498 renal
SNB-75 CNS = test system: SNB-75 CNS
OVCAR-4 ovarian = test system: OVCAR-4 ovarian
DMS 273 small cell lung = test system: DMS 273 small cell lung
CAKI-1 renal = test system: CAKI-1 renal
A549 NSCLC = test system: A549 NSCLC
NCI-H226 lung = test system: NCI-H226 lung
HOP-92 NSCLC = test system: HOP-92 NSCLC
IGROV1 ovarian = test system: IGROV1 ovarian
HL-60(TB) leukemia = test system: HL-60(TB) leukemia
SK-MEL-2 melanoma = test system: SK-MEL-2 melanoma
COLO 205 colon = test system: COLO 205 colon
SK-MEL-5 melanoma = test system: SK-MEL-5 melanoma
SW-620 colon = test system: SW-620 colon

**Q.** `Cc1cc(C)nc(NS(=O)(=O)c2ccc(NC(=O)c3cccc4c(Nc5ccc(S(=O)(=O)N=C(N)N)cc5)c5ccc(Cl)cc5nc34)cc2)n1` was tested. Which TGI (NCI-H460 lung) did it give?
**A.** > 100 µM

**Q.** What about the TGI (DMS 114 small cell lung) of the same compound?
**A.** > 100 µM

**Q.** What about the TGI (SF-295 CNS) of the same compound?
**A.** 53 µM

**Q.** What about the TGI (LOX IMVI melanoma) of the same compound?
**A.** 43.3 µM

**Q.** And the TGI (NCI-H23 lung)?
**A.** > 100 µM

**Q.** What about the TGI (RXF-631 renal) of the same compound?
**A.** > 100 µM

**Q.** What about the TGI (SNB-78 CNS) of the same compound?
**A.** > 100 µM

**Q.** What about the TGI (U251 CNS) of the same compound?
**A.** 31.4 µM

**Q.** What about the TGI (SF-539 CNS) of the same compound?
**A.** 73.7 µM

**Q.** What about the TGI (SK-OV-3 ovarian) of the same compound?
**A.** > 100 µM

**Q.** What about the TGI (SN12C renal) of the same compound?
**A.** > 100 µM

**Q.** What about the TGI (K-562 leukemia) of the same compound?
**A.** > 100 µM

**Q.** And the TGI (OVCAR-8 ovarian)?
**A.** > 100 µM

**Q.** And the TGI (786-0 renal)?
**A.** 32.2 µM

**Q.** And the TGI (UO-31 renal)?
**A.** > 100 µM

**Q.** What about the TGI (MALME-3M melanoma) of the same compound?
**A.** > 100 µM

**Q.** And the TGI (UACC-257 melanoma)?
**A.** 59.9 µM

**Q.** What about the TGI (SF-268 CNS) of the same compound?
**A.** > 100 µM

**Q.** And the TGI (KM20L2 colon)?
**A.** > 100 µM

**Q.** What about the TGI (HCT-116 colon) of the same compound?
**A.** 35.4 µM

**Q.** And the TGI (DLD-1 colon)?
**A.** 43.2 µM

**Q.** What about the TGI (UACC-62 melanoma) of the same compound?
**A.** > 100 µM

**Q.** And the TGI (OVCAR-3 ovarian)?
**A.** 52.2 µM

**Q.** What about the TGI (HCC-2998 colon) of the same compound?
**A.** 43.5 µM

**Q.** What about the TGI (MOLT-4 leukemia) of the same compound?
**A.** 60.8 µM

**Q.** And the TGI (HCT-15 colon)?
**A.** > 100 µM

**Q.** And the TGI (M19-MEL melanoma)?
**A.** > 100 µM

**Q.** And the TGI (LXFL 529 NSCLC)?
**A.** > 100 µM

**Q.** What about the TGI (KM12 colon) of the same compound?
**A.** > 100 µM

**Q.** And the TGI (RPMI-8226 leukemia)?
**A.** 63 µM

**Q.** What about the TGI (SR leukemia) of the same compound?
**A.** 80.5 µM

**Q.** And the TGI (XF 498 CNS)?
**A.** > 100 µM

**Q.** What about the TGI (M14 melanoma) of the same compound?
**A.** > 100 µM

**Q.** And the TGI (ACHN renal)?
**A.** > 100 µM

**Q.** And the TGI (NCI-H522 lung)?
**A.** 39.8 µM

**Q.** And the TGI (RXF 393 renal)?
**A.** 36.5 µM

**Q.** What about the TGI (EKVX NSCLC) of the same compound?
**A.** > 100 µM

**Q.** And the TGI (HT29 colon)?
**A.** > 100 µM

**Q.** What about the TGI (OVCAR-5 ovarian) of the same compound?
**A.** > 100 µM

**Q.** What about the TGI (SNB-19 CNS) of the same compound?
**A.** 53.3 µM

**Q.** What about the TGI (CCRF-CEM leukemia) of the same compound?
**A.** > 100 µM

**Q.** What about the TGI (TK-10 renal) of the same compound?
**A.** > 100 µM

**Q.** And the TGI (HOP-62 NSCLC)?
**A.** > 100 µM

**Q.** What about the TGI (SK-MEL-28 melanoma) of the same compound?
**A.** > 100 µM

**Q.** And the TGI (A498 renal)?
**A.** > 100 µM

**Q.** What about the TGI (SNB-75 CNS) of the same compound?
**A.** > 100 µM

**Q.** Which results are given for `COc1cc([C@@H]2c3cc4c(cc3[C@@H](NC(=O)c3cccc(N)c3)C3COC(=O)[C@@H]32)OCO4)cc(OC)c1O` (some centres not stated)?
**A.** TGI (NCI-H460 lung): 1.97 µM; TGI (OVCAR-4 ovarian): > 66.9 µM; TGI (SF-295 CNS): 5.13 µM; TGI (DMS 273 small cell lung): 12.1 µM; TGI (LOX IMVI melanoma): 12.7 µM; TGI (CAKI-1 renal): 6.18 µM; TGI (A549 NSCLC): 2.55 µM; TGI (NCI-H23 lung): 2.22 µM; TGI (RXF-631 renal): 18.5 µM; TGI (SNB-78 CNS): > 84.4 µM; TGI (U251 CNS): 4.51 µM; TGI (SF-539 CNS): 1.53 µM; TGI (NCI-H226 lung): 1.62 µM; TGI (SK-OV-3 ovarian): > 22.9 µM; TGI (HOP-92 NSCLC): 15.9 µM; TGI (SN12C renal): 3.78 µM; TGI (K-562 leukemia): > 49.3 µM; TGI (OVCAR-8 ovarian): 14.8 µM; TGI (786-0 renal): 2.3 µM; TGI (UO-31 renal): 26.1 µM; TGI (MALME-3M melanoma): 8.87 µM; TGI (IGROV1 ovarian): > 41.6 µM; TGI (UACC-257 melanoma): > 100 µM; TGI (SF-268 CNS): 13.9 µM; TGI (KM20L2 colon): 36 µM; TGI (HL-60(TB) leukemia): 2.11 µM; TGI (HCT-116 colon): > 42.4 µM; TGI (DLD-1 colon): > 67.2 µM; TGI (UACC-62 melanoma): 7.94 µM; TGI (OVCAR-3 ovarian): 30.2 µM; TGI (HCC-2998 colon): 7.23 µM; TGI (MOLT-4 leukemia): 2.33 µM; TGI (SK-MEL-2 melanoma): 10.1 µM; TGI (COLO 205 colon): > 100 µM; TGI (HCT-15 colon): 19.7 µM; TGI (M19-MEL melanoma): > 100 µM; TGI (LXFL 529 NSCLC): > 100 µM; TGI (KM12 colon): 15 µM; TGI (RPMI-8226 leukemia): 18.1 µM; TGI (SR leukemia): 0.321 µM; TGI (XF 498 CNS): 25 µM; TGI (M14 melanoma): > 20.4 µM; TGI (ACHN renal): 2.4 µM; TGI (RXF 393 renal): 23.5 µM; TGI (SK-MEL-5 melanoma): 6.16 µM; TGI (SW-620 colon): 35 µM; TGI (EKVX NSCLC): 15.6 µM; TGI (HT29 colon): 21.3 µM; TGI (OVCAR-5 ovarian): 12.8 µM; TGI (SNB-19 CNS): 31.6 µM; TGI (CCRF-CEM leukemia): > 33 µM; TGI (TK-10 renal): 18.4 µM; TGI (HOP-62 NSCLC): 0.0964 µM; TGI (SK-MEL-28 melanoma): > 88.5 µM; TGI (A498 renal): 8.08 µM; TGI (SNB-75 CNS): 11.6 µM
